Source: the NIST ThermoML archive (doi:10.1016/j.tca.2013.02.022)

Assay: cn = amount concentration of the nth substance listed, in mol/dm3
Conditions: 298.15 K, 101 kPa, Liquid, Alternating current cell with electrodes

CCn1cc[n+](C)c1.[Br-] [1-ethyl-3-methylimidazolium bromide] + CO
Conditions	molar conductivity [S·m2/mol]
c1 = 0.001828	0.00814
c1 = 0.002264	0.00804
c1 = 0.002683	0.00795
c1 = 0.003262	0.00784
c1 = 0.003528	0.00779
c1 = 0.004007	0.00771
c1 = 0.004303	0.00765
c1 = 0.004622	0.0076
c1 = 0.004858	0.00757
c1 = 0.005093	0.00753
c1 = 0.005282	0.0075
c1 = 0.005565	0.00746
c1 = 0.005822	0.00743
c1 = 0.006122	0.00739
c1 = 0.006338	0.00736

CCn1cc[n+](C)c1.[Br-] [1-ethyl-3-methylimidazolium bromide] + C[S+](C)[O-]
Conditions	molar conductivity [S·m2/mol]
c1 = 0.002105	0.00246
c1 = 0.003858	0.00225
c1 = 0.005342	0.00209
c1 = 0.006614	0.00198
c1 = 0.007717	0.0019
c1 = 0.008681	0.00182
c1 = 0.009532	0.00177
c1 = 0.01097	0.00166
c1 = 0.01213	0.00158
c1 = 0.0135	0.0015
c1 = 0.01458	0.00144
c1 = 0.01614	0.00136
c1 = 0.01721	0.0013
c1 = 0.01812	0.00126
c1 = 0.01902	0.00122

CCn1cc[n+](C)c1.[Br-] [1-ethyl-3-methylimidazolium bromide] + CC(=O)N(C)C
Conditions	molar conductivity [S·m2/mol]
c1 = 0.000995	0.00429
c1 = 0.001858	0.004
c1 = 0.002527	0.00377
c1 = 0.003129	0.00364
c1 = 0.003697	0.00354
c1 = 0.004106	0.00348
c1 = 0.004509	0.00335
c1 = 0.005187	0.0032
c1 = 0.005736	0.00309
c1 = 0.005973	0.00305
c1 = 0.006388	0.003
c1 = 0.0073	0.00283
c1 = 0.007821	0.00273
c1 = 0.008279	0.0027
c1 = 0.008995	0.00254

CCn1cc[n+](C)c1.[Br-] [1-ethyl-3-methylimidazolium bromide] + CN(C)C=O
Conditions	molar conductivity [S·m2/mol]
c1 = 0.001828	0.00732
c1 = 0.002531	0.0071
c1 = 0.003133	0.0069
c1 = 0.003655	0.00675
c1 = 0.004225	0.00667
c1 = 0.004874	0.00652
c1 = 0.005483	0.00643
c1 = 0.005981	0.0063
c1 = 0.006397	0.00622
c1 = 0.006905	0.00616
c1 = 0.007429	0.0061
c1 = 0.007833	0.00604
c1 = 0.008291	0.00593
c1 = 0.008681	0.00587
c1 = 0.009008	0.00584

CCn1cc[n+](C)c1.[Br-] [1-ethyl-3-methylimidazolium bromide] + CC#N
Conditions	molar conductivity [S·m2/mol]
c1 = 0.000941	0.0155
c1 = 0.001725	0.0152
c1 = 0.002388	0.015
c1 = 0.002957	0.0149
c1 = 0.003994	0.0146
c1 = 0.0046	0.0145
c1 = 0.005175	0.0144
c1 = 0.005645	0.0143
c1 = 0.006038	0.0143
c1 = 0.006369	0.0142
c1 = 0.006654	0.0142
c1 = 0.007011	0.0141
c1 = 0.007656	0.014
c1 = 0.007998	0.0139
c1 = 0.008433	0.0139
